# Data published in US8106197B2, “Aminoheteroaryl compounds as protein kinase inhibitors” (Pfizer Inc., priority 2003, dated 2012).
# Molecular target: T1, HGFR (Homo sapiens, UniProt P08581)
# T1 construct: purchased Upstate 14-526
# Assay: HGFR continuous-coupled spectrophotometric assay
# Type: biochemical
# Settings: not given
# T1 sequence (P08581 974-1390 limits assumed): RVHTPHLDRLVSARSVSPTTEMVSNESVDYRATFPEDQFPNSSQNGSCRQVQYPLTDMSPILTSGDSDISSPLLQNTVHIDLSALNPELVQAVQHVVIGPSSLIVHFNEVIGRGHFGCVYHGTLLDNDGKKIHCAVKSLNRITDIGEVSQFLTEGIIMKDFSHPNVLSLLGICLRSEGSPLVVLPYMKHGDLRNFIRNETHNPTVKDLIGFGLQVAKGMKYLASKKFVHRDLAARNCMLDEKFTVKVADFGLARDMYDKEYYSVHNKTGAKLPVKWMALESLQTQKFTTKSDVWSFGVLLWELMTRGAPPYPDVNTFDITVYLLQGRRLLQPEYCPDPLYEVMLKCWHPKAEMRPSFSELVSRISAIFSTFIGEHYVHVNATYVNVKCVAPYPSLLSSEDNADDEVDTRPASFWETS
row,SMILES,% inhibition
1,Nc1ncc(-c2ccc(C(=O)N3CCC(N4CCCC4)CC3)cc2)cc1OCc1cccc(OC(F)(F)F)c1,% inhibition = 13
2,CC(=O)N(c1ccc(C)cc1)c1nc(COc2cc(-c3ccc(C(=O)N4CCC(N5CCCC5)CC4)cc3)cnc2N)cs1,% inhibition = 9
3,Cc1cc(COc2cc(-c3ccc(C(=O)N4CCC(N5CCCC5)CC4)cc3)cnc2N)no1,% inhibition = 16
4,Nc1ncc(-c2ccc(C(=O)N3CCC(N4CCCC4)CC3)cc2)cc1OCc1ccc(Cl)c(Cl)c1,% inhibition = 26
5,Nc1ncc(-c2ccc(C(=O)N3CCC(N4CCCC4)CC3)cc2)cc1OCc1nsc(Cl)n1,% inhibition = 5
6,CCc1nc(COc2cc(-c3ccc(C(=O)N4CCC(N5CCCC5)CC4)cc3)cnc2N)no1,% inhibition = 5
7,Nc1ncc(-c2ccc(C(=O)N3CCC(N4CCCC4)CC3)cc2)cc1OCc1nnn[nH]1,% inhibition = 14
8,Nc1ncc(-c2ccc(C(=O)N3CCC(N4CCCC4)CC3)cc2)cc1OCc1cccc(C(=O)Nc2cccnc2)c1,% inhibition = 10
9,COc1ccccc1-c1nc(COc2cc(-c3ccc(C(=O)N4CCC(N5CCCC5)CC4)cc3)cnc2N)no1,% inhibition = 8
10,Nc1ncc(-c2ccc(C(=O)N3CCC(N4CCCC4)CC3)cc2)cc1OCc1ccccn1,% inhibition = 16
11,Nc1ncc(-c2ccc(C(=O)N3CCC(N4CCCC4)CC3)cc2)cc1OCc1cccc(Cl)c1F,% inhibition = 28
12,Nc1ncc(-c2ccc(C(=O)N3CCC(N4CCCC4)CC3)cc2)cc1OCc1noc(-c2cccc(C(F)(F)F)c2)n1,% inhibition = 27
13,Nc1ncc(-c2ccc(C(=O)N3CCC(N4CCCC4)CC3)cc2)cc1COc1ccc2ccccc2c1,% inhibition = 27
14,Nc1ncc(-c2ccc(C(=O)N3CCC(N4CCCC4)CC3)cc2)cc1OCc1cc(F)c(F)c(F)c1,% inhibition = 19
15,Nc1ncc(-c2ccc(C(=O)N3CCC(N4CCCC4)CC3)cc2)cc1OCc1ccccc1OC(F)(F)F,% inhibition = 21
16,Nc1ncc(-c2ccc(C(=O)N3CCC(N4CCCC4)CC3)cc2)cc1OCc1cc(F)ccc1F,% inhibition = 24
17,Nc1ncc(-c2ccc(C(=O)N3CCC(N4CCCC4)CC3)cc2)cc1OCc1ccc(C(F)(F)F)nc1,% inhibition = 13
18,Cn1nc(CC2CC2)nc1COc1cc(-c2ccc(C(=O)N3CCC(N4CCCC4)CC3)cc2)cnc1N,% inhibition = 7
19,Cc1ccc(F)c(COc2cc(-c3ccc(C(=O)N4CCC(N5CCCC5)CC4)cc3)cnc2N)c1F,% inhibition = 51
20,Nc1ncc(-c2ccc(C(=O)N3CCC(N4CCCC4)CC3)cc2)cc1OCc1ccc(OC(F)(F)F)cc1,% inhibition = 20
21,Nc1ncc(-c2ccc(C(=O)N3CCC(N4CCCC4)CC3)cc2)cc1OCc1ccc(C(=O)NCCc2ccccn2)cc1,% inhibition = 11
22,CCc1ccn2cc(COc3cc(-c4ccc(C(=O)N5CCC(N6CCCC6)CC5)cc4)cnc3N)nc2c1,% inhibition = 9
23,Nc1ncc(-c2ccc(C(=O)N3CCC(N4CCCC4)CC3)cc2)cc1OCc1cn2ccccc2n1,% inhibition = 11
24,Cc1ccc(COc2cc(-c3ccc(C(=O)N4CCC(N5CCCC5)CC4)cc3)cnc2N)c(F)c1F,% inhibition = 39
25,Nc1ncc(-c2ccc(C(=O)N3CCC(N4CCCC4)CC3)cc2)cc1OCc1ccc(C(=O)NC2CCN(Cc3ccccc3)CC2)cc1,% inhibition = 11
26,Nc1ncc(-c2ccc(C(=O)N3CCC(N4CCCC4)CC3)cc2)cc1OCc1ccc(Cl)cc1,% inhibition = 15
27,Cn1nc(-c2ccccc2)nc1COc1cc(-c2ccc(C(=O)N3CCC(N4CCCC4)CC3)cc2)cnc1N,% inhibition = 5
28,Cc1cc(C)n2nc(COc3cc(-c4ccc(C(=O)N5CCC(N6CCCC6)CC5)cc4)cnc3N)nc2n1,% inhibition = 18
29,Nc1ncc(-c2ccc(C(=O)N3CCC(N4CCCC4)CC3)cc2)cc1OCc1ccc(F)c(C(F)(F)F)c1,% inhibition = 13

# Same assay, conditions: Table 3; Ki(μM) or I(%); test concentration not given
row,SMILES,I(%)
1,"CC1CN(C(=O)c2ccc(-c3cnc(N)c(OCc4c(Cl)cccc4Cl)c3)cc2)CC(C)N1 (stereo not shown) [Example I-634, {4-[6-Amino-5-(2,6-dichloro-benzyloxy)-pyridin-3-yl]-phenyl}-(3,5-dimethyl-piperazin-1-yl)-methanone]",10
2,"CC1CN(C(=O)c2ccc(-c3cnc(N)c(OCc4ccccc4)c3)cc2)CC(C)N1 (stereo not shown) [Example I-621, {4-(6-Amino-5-benzyloxy-pyridin-3-yl)-phenyl]-(3,5-dimethyl-piperazin-1-yl)-methanone]",6
3,CC(Oc1cc(-c2ccc(C(=O)N3C[C@@H](C)N[C@@H](C)C3)cc2)cnc1N)c1ccccc1C(F)(F)F (stereo partly shown) [Example I-616],3
4,"CC(Oc1cc(-c2ccc(C(=O)N3C[C@@H](C)N[C@@H](C)C3)cc2)cnc1N)c1cccc(C(F)(F)F)c1 (stereo partly shown) [Example I-617, (4-{6-Amino-5-[1-(3-trifluoromethyl-phenyl)-ethoxy]-pyridin-3-yl]-phenyl)-(3,5-dimethyl-piperazin-1-yl)-methanone]",2
5,"Cc1ccccc1COc1cc(-c2ccc(C(=O)N3CCC(N4CCCC4)CC3)cc2)cnc1N [Example I-627, {4-[6-Amino-5-(2-methyl-benzxloxy)-pyridin-3-yl]-phenyl}-(4-pyrrolidin-1-yl-piperidin-1-yl)-methanone]",6
6,CC(Oc1cc(-c2nccn2C)cnc1N)c1c(Cl)ccc(F)c1Cl (stereo not shown) [Example I-652],11

# Same assay, conditions: Table 5; percent c-MET inhibition at 50 nM
row,SMILES,inhibition at 0.05 µM [%]
1,CCC(C)NC(=O)c1ccc(-c2cnc(N)c(OC(C)c3c(Cl)ccc(F)c3Cl)c2)cc1 (stereo not shown),64
2,CC(Oc1cc(-c2ccc(C(=O)N[C@H]3CC[C@H](CO)CC3)cc2)cnc1N)c1c(Cl)ccc(F)c1Cl (stereo partly shown),68
3,CC(O)CCNC(=O)c1ccc(-c2cnc(N)c(OC(C)c3c(Cl)ccc(F)c3Cl)c2)cc1 (stereo not shown),77
4,CC(Oc1cc(-c2ccc(C(=O)N3CCCCC3COc3ccccc3)cc2)cnc1N)c1c(Cl)ccc(F)c1Cl (stereo not shown),53
5,CC(Oc1cc(-c2ccc(C(=O)N3CCCC(CO)C3)cc2)cnc1N)c1c(Cl)ccc(F)c1Cl (stereo not shown),84
6,CC(NC(=O)c1ccc(-c2cnc(N)c(OC(C)c3c(Cl)ccc(F)c3Cl)c2)cc1)c1ccc(F)cc1 (stereo not shown),56
7,CC(Cc1ccc(Cl)cc1)NC(=O)c1ccc(-c2cnc(N)c(OC(C)c3c(Cl)ccc(F)c3Cl)c2)cc1 (stereo not shown),58
8,CC(Oc1cc(-c2ccc(C(=O)NC(CO)C(C)C)cc2)cnc1N)c1c(Cl)ccc(F)c1Cl (stereo not shown),65
9,CC(Oc1cc(-c2ccc(C(=O)N3CCCC(O)C3)cc2)cnc1N)c1c(Cl)ccc(F)c1Cl (stereo not shown),85
10,CC(Oc1cc(-c2ccc(C(=O)N[C@H]3C[C@@H]3c3ccccc3)cc2)cnc1N)c1c(Cl)ccc(F)c1Cl (stereo partly shown),65
11,CC1CCCN(C(=O)c2ccc(-c3cnc(N)c(OC(C)c4c(Cl)ccc(F)c4Cl)c3)cc2)C1 (stereo not shown),65

# Same assay, conditions: Table 5; percent c-MET inhibition at 50 nM; 0.05 µM
row,SMILES,% inhibition
1,CC(Oc1cc(-c2ccc(C(=O)N[C@H]3CC[C@H](O)CC3)cc2)cnc1N)c1c(Cl)ccc(F)c1Cl (stereo partly shown) [drawing 1011],% inhibition = 72

# Same assay, conditions: Table 6; percent c-MET inhibition at 1 μM; read-out: % inhibition
row,SMILES,inhibition at 1 µM [%]
1,CN(CC#N)C(=O)c1cnc(N)c(OCc2c(Cl)cccc2Cl)c1,30
2,Nc1ncc(C(=O)N2CCN(CCCN3CCOCC3)CC2)cc1OCc1c(Cl)cccc1Cl,40
3,Nc1ncc(C(=O)NCCC2CCC(=O)N2CCc2ccc(O)cc2)cc1OCc1c(Cl)cccc1Cl (stereo not shown),16
4,Nc1ncc(C(=O)N2CCCC(C(=O)N3CCOCC3)C2)cc1OCc1c(Cl)cccc1Cl (stereo not shown),21
5,Nc1ncc(C(=O)N2CCS(=O)(=O)CC2)cc1OCc1c(Cl)cccc1Cl,10
6,Cc1nc[nH]c1CN1CCC2(CC1)CC(NC(=O)c1cnc(N)c(OCc3c(Cl)cccc3Cl)c1)CO2 (stereo not shown),30
7,CC(C)CC(NC(=O)c1cnc(N)c(OCc2c(Cl)cccc2Cl)c1)C(N)=O (stereo not shown),40
8,Nc1ncc(C(=O)NCc2c(F)cccc2F)cc1OCc1c(Cl)cccc1Cl,32
9,Nc1ncc(C(=O)NCC2=CSC3=NCCN23)cc1OCc1c(Cl)cccc1Cl,99
10,CC(O)CNC(=O)c1cnc(N)c(OCc2c(Cl)cccc2Cl)c1 (stereo not shown),49
11,Nc1ncc(C(=O)NC2CCCNC2=O)cc1OCc1c(Cl)cccc1Cl (stereo not shown),16
12,CN(C)C1CCN(C(=O)c2cnc(N)c(OCc3c(Cl)cccc3Cl)c2)C1 (stereo not shown),33
13,Nc1ncc(C(=O)N2CCCC(N3CCC(CO)CC3)CC2)cc1OCc1c(Cl)cccc1Cl (stereo not shown),20
14,Nc1ncc(C(=O)NCCCO)cc1OCc1c(Cl)cccc1Cl,26
15,Nc1ncc(C(=O)NCc2ccc(OC(F)F)cc2)cc1OCc1c(Cl)cccc1Cl,26
16,Nc1ncc(C(=O)N2CCN(CCO)CC2)cc1OCc1c(Cl)cccc1Cl,51
17,Nc1ncc(C(=O)N2CCC(O)(CCc3ccncc3)CC2)cc1OCc1c(Cl)cccc1Cl,25
18,CCN1CCCC(NC(=O)c2cnc(N)c(OCc3c(Cl)cccc3Cl)c2)C1 (stereo not shown),19
19,Nc1ncc(C(=O)N2CCCC(C(=O)N3CCCC3)C2)cc1OCc1c(Cl)cccc1Cl (stereo not shown),47
20,Nc1ncc(C(=O)N2CCN(Cc3cccc4ccccc34)CC2)cc1OCc1c(Cl)cccc1Cl,26
21,Cc1cnc(CNC(=O)c2cnc(N)c(OCc3c(Cl)cccc3Cl)c2)cn1,33
22,Nc1ncc(C(=O)NCc2ccc(O)cc2)cc1OCc1c(Cl)cccc1Cl,37
23,Nc1ncc(C(=O)N2CCN(CC(=O)Nc3ccccn3)CC2)cc1OCc1c(Cl)cccc1Cl,56
24,CC(CCCC(C)(C)O)NC(=O)c1cnc(N)c(OCc2c(Cl)cccc2Cl)c1 (stereo not shown),35
25,Nc1ncc(C(=O)NCCO)cc1OCc1c(Cl)cccc1Cl,34
26,Cc1ccc(N2CCN(CCCCNC(=O)c3cnc(N)c(OCc4c(Cl)cccc4Cl)c3)CC2)cc1,15
27,COCCNC(=O)C1CCCN(C(=O)c2cnc(N)c(OCc3c(Cl)cccc3Cl)c2)C1 (stereo not shown),20
28,Nc1ncc(C(=O)NCc2ccc(F)cc2Cl)cc1OCc1c(Cl)cccc1Cl,37
29,N#CC1(c2ccccc2)CCN(C(=O)c2cnc(N)c(OCc3c(Cl)cccc3Cl)c2)CC1,37
